In patent US20050282818A1, “Ubiquitin ligase inhibitors” (Rigel Pharmaceuticals, Inc., priority 2004, published 2005):

Columns and labels:
[1] = molecular target: T1, TRAF6/Uev1A/Ubc13 (Homo sapiens, UniProt Q9Y4K3); experiment: TRAF6/Uev1A/Ubc13 plate-based ubiquitin ligase assay; assay type: biochemical
T1 sequence (Q9Y4K3 1-522): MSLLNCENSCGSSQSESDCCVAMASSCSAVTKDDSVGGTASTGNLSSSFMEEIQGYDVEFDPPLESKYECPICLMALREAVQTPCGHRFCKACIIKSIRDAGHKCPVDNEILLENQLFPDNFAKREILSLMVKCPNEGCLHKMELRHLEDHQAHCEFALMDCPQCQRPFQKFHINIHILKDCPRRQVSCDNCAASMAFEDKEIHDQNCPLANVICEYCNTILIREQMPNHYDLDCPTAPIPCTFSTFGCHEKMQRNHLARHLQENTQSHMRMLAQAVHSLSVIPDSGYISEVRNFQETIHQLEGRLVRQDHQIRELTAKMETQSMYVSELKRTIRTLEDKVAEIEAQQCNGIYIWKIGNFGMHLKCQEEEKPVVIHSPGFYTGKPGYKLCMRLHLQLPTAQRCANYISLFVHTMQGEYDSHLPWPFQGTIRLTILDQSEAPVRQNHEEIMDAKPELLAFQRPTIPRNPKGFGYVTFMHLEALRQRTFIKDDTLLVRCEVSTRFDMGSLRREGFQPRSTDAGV
Summary of the method: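 Ligase activity was read as luminescence from anti-Flag/HRP detection of Flag-ubiquitin bound to casein-blocked Ni-plates alongside His-ubiquitin after a 1 h room-temperature reaction. Buffer: 62.5 mM Tris pH 7.5, 6.25 mM MgCl2, 1.0 mM DTT, 2 μM ATP; E1, Uev1a/Ubc13 and TRAF6 added last to start. IC50s derived across compound concentrations.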

[2] = molecular target: APC11/APC2 (Homo sapiens, UniProt Q9NYG5+Q9UJX6); experiment: APC-11/APC-2 ligase assay (APC auto ubiquitination); assay type: biochemical; conditions: APC assay
Chain of APC11/APC2 (Q9NYG5 whole entry): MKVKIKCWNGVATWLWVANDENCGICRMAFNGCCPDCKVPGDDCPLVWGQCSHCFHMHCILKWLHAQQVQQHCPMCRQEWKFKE
Chain of APC11/APC2 (Q9UJX6 whole entry): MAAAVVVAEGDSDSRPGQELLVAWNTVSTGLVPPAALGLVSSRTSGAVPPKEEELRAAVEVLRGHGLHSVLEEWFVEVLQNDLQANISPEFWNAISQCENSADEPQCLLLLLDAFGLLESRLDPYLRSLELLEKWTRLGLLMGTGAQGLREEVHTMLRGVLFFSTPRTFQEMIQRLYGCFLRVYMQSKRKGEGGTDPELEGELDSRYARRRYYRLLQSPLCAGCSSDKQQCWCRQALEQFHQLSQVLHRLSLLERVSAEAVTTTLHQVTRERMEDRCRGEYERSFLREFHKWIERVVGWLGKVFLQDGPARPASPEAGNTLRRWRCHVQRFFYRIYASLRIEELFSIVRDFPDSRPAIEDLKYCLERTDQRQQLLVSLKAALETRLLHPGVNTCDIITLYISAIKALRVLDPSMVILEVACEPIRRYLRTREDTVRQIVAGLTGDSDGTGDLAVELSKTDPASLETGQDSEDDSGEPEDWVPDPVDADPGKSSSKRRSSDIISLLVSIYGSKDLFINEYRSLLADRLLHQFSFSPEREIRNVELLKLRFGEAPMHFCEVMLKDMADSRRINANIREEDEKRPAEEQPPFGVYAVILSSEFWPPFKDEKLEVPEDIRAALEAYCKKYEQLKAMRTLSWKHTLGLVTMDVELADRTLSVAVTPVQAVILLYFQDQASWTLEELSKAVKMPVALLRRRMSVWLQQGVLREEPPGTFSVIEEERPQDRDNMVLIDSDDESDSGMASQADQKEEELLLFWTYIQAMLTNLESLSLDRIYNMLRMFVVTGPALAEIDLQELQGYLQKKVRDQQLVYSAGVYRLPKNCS
Summary of the method: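 His-tagged APC was captured on nickel plates with human E1 (5 ng/well), UbcH5c (20 ng/well), APC (100 ng/well) and Flag-ubiquitin (100 ng/well) in a Tris pH 7.6 reaction buffer containing 2.5 mM ATP, for 1 hour at room temperature. Read-out was anti-Flag/HRP chemiluminescence. IC50 was set against a DMSO control, typically from 6 or 8 concentrations.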

[3] = system: ICAM-1 expression in A549 cells; experiment: ICAM assay (IL-1 induced ICAM-1/CD54 expression in A549 cells); assay type: cell-based, human; conditions: Homo sapiens, A549, ICAM assay
Summary of the method: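 Luminescent immunostaining (anti-CD54, then anti-mouse IgG, 1 h) quantifies ICAM-1 on A549 cells induced 4 h at 37° C by IL-1 (4 μl of 25 ng/ml added). Compound is added 1 h before the cytokine to cells plated overnight at 10,000 per well.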

SMILES | IC50 [1] | IC50 [2] | IC50 [3]
FC(F)(F)c1ccc(-c2cc(-c3ccc(C(F)(F)F)cc3)c3nonc3c2)cc1 [compound 420, 4,6-bis(4-[trifluoromethyl]phenyl)-2,1,3-benzoxadiazole] | ≥ 20 µM | ≥ 20 µM | ≥ 20 µM
COc1cccc(-c2cc(-c3cccc(OC)c3)c3nonc3c2)c1 [compound 421, 4,6-bis(3-methoxyphenyl)-2,1,3-benzoxadiazole] | ≥ 20 µM | ≥ 20 µM | ≥ 20 µM
CC(C)(C)c1ccc(-c2cc(-c3ccc(C(C)(C)C)cc3)c3nonc3c2)cc1 [compound 422, 4,6-bis(4-t-butylphenyl)-2,1,3-benzoxadiazole] | ≥ 20 µM | ≥ 20 µM | ≥ 20 µM
COc1ccccc1-c1cc(-c2ccccc2OC)c2nonc2c1 [compound 423, 4,6-bis(2-methoxyphenyl)-2,1,3-benzoxadiazole] | ≥ 20 µM | ≥ 20 µM | ≥ 20 µM
O=S(=O)(Nc1ccccc1Br)c1ccc(Cl)c2nonc12 [compound 424, N-(2-bromophenyl)-7-chloro-2,1,3-benzoxadiazole-4-sulfonamide] | ≥ 20 µM | ≥ 20 µM | ≥ 20 µM
Oc1ccc2c(c1)cc(Sc1cccc3cccnc13)c1nonc12 [compound 425, 4-(quinolin-8-ylthio)naphtho[2,1-c][1,2,5]oxadiazol-7-ol] | ≥ 20 µM | ≥ 20 µM | ≥ 20 µM
Cc1cc(C)cc(-c2ccc(N)c3nonc23)c1 [compound 426, 7-(3,5-dimethylphenyl)-2,1,3-benzoxadiazol-4-amine] | ≥ 20 µM | ≥ 20 µM | ≥ 20 µM
O=C(Nc1ccc([N+](=O)[O-])c2nonc12)c1cccc(F)c1F [compound 427, 2,3-difluoro-N-(7-nitro-2,1,3-benzoxadiazol-4-yl)benzamide] | ≥ 20 µM | ≥ 20 µM | 1 to 20 µM
O=[N+]([O-])c1c(N2CCCCC2)cc(-c2cc(F)cc(F)c2)c2nonc12 [compound 428, 7-(3,5-difluorophenyl)-4-nitro-5-(piperidin-1-yl)-2,1,3-benzoxadiazole] | ≥ 20 µM | ≥ 20 µM | ≥ 20 µM
O=[N+]([O-])c1c(N2CCCCC2)cc(-c2cccc(C(F)(F)F)c2)c2nonc12 [compound 429, 7-(3-[trifluoromethyl]phenyl)-4-nitro-5-(piperidin-1-yl)-2,1,3-benzoxadiazole] | ≥ 20 µM | ≥ 20 µM | ≥ 20 µM
Oc1ccc2c(c1)cc(Cl)c1nonc12 [compound 430, 4-chloronaphtho[2,1-c][1,2,5]oxadiazol-7-ol] | ≥ 20 µM | ≥ 20 µM | ≥ 20 µM
O=[N+]([O-])c1c(N2CCCCC2)cc(-c2ccc(C(F)(F)F)cc2)c2nonc12 [compound 431, 7-(4-[trifluoromethyl]phenyl)-4-nitro-5-(piperidin-1-yl)-2,1,3-benzoxadiazole] | ≥ 20 µM | ≥ 20 µM | ≥ 20 µM
Cc1cccc(-c2cc(N3CCCCC3)c([N+](=O)[O-])c3nonc23)c1 [compound 432, 7-(3-methylphenyl)-4-nitro-5-(piperidin-1-yl)-2,1,3-benzoxadiazole] | ≥ 20 µM | ≥ 20 µM | ≥ 20 µM
CC(C)(C)c1ccc(-c2cc(N3CCCCC3)c([N+](=O)[O-])c3nonc23)cc1 [compound 433, 7-(4-t-butylphenyl)-4-nitro-5-(piperidin-1-yl)-2,1,3-benzoxadiazole] | ≥ 20 µM | ≥ 20 µM | ≥ 20 µM
COc1cccc(-c2cc(N3CCCCC3)c([N+](=O)[O-])c3nonc23)c1 [compound 434, 7-(3-methoxyphenyl)-4-nitro-5-(piperidin-1-yl)-2,1,3-benzoxadiazole] | ≥ 20 µM | ≥ 20 µM | ≥ 20 µM
CC(C)(C)c1ccc(-c2ccc(N)c3nonc23)cc1 [compound 435, 7-(4-t-butylphenyl)-2,1,3-benzoxadiazol-4-amine] | ≥ 20 µM | ≥ 20 µM | ≥ 20 µM
CC(=O)Nc1ccc(-c2cc(C)cc(C)c2)c2nonc12 [compound 436, N-(7-[3,5-dimethylphenyl]-2,1,3-benzoxadiazol-4-yl)acetamide] | ≥ 20 µM | ≥ 20 µM | ≥ 20 µM
